According to publication doi:10.1101/2025.08.06.668955, “High-Affinity, Structure-Validated and Selective Macrocyclic Peptide Tools for Chemical Biology Studies of Huntingtin” (bioRxiv, 2025):
Where a SMILES comes first, the peptide text is derived from it. Bridges are numbered along the chain shown (N, C = ends).

How the values were obtained:
HTTQ54 = molecular target: T1, HTTQ54 (Homo sapiens, UniProt P42858, INS38QQQQQQQQQQQQQQQQQQQQQQQQQQQQQQQQQ); test: Thermal shift assay (DSF), HTTQ54; format: binding; settings: SYPRO Orange, 0.25 mg/mL protein, macrocycle up to 10 μM, 2.5% DMSO, n=3
T1 construct: FLAG; made in house; host or cells: Sf9 insect cells (baculovirus)
Procedure: (§1) In an Axygen® 384-well PCR microplate (REF# PCR-384-LC480-W-NF, Corning), samples were mixed to yield a final concentration of 0.25 mg/mL Q54 or Q23/HAP40, a 5-pt 2-fold serial dilution of each macrocycle (top concentration of 10 μM, 2.5% DMSO), and 5X SYPRO™ Orange (CAT# S6650, Thermo Fisher Scientific) in buffer (20 mM HEPES pH 7.4, 150 mM NaCl, 1 mM TCEP, 0.005% Tween-20). Differential Scanning Fluorimetry (DSF) was performed using a LightCycler® 480 (Roche LifeSciences) set to a 4 °C/min temperature ramp (20–95 °C) and fluorescence detection at 580 nm. Melting temperatures (Tm) were obtained from the minima of the negative derivative of each curve. The propagated error of the thermal shift (ΔTm) was calculated from the standard deviation of each Tm mean (n=3). To ensure a maximally macrocycle-bound fraction (KD ~10 nM; ~100% bound) at 0.25 mg/mL HTT or HTT-HAP40 (~0.7 μM), the upper limit of macrocycle tested was 10 μM.
(§2) 98 Supplementary Figure. 10. Thermal shift (ΔTm) induced by macrocycle binding. Melting
(§3) 99 temperature of HTTQ54 (left) with HL5 or HL2 minus HTTQ54 with DMSO (46.5 °C), and (right)
(§4) 100 HTTQ23-HAP40 with HD4, HL2, HL5, HHD2, HHD3, or HHL1 minus HTTQ23-HAP40 with DMSO
(§5) 101 (51.0 °C). ΔTm significance was determined using an unpaired t-test with Welch correction,
(§6) 102 comparing to the mean Tm of Q54 or Q23-HAP40 with DMSO; *P < 0.05, **P < 0.01, ***P <
103 0.001. […]

HTTQ23-HAP40 = molecular target: T2, HTTQ23-HAP40 (Homo sapiens, UniProt P23610+P42858, INS38QQ); test: Thermal shift assay (DSF), HTTQ23-HAP40; format: binding; settings: SYPRO Orange, 0.25 mg/mL protein, macrocycle up to 10 μM, 2.5% DMSO, n=3
T2 construct: Full-length wildtype HTT with a polyQ tract of 23 glutamines; FLAG; made in house; host or cells: Sf9 insect cells (baculovirus)
Procedure: as §1, §2, §3, §4, §5, §6
103 0.001. The summary table reports the ΔTm and exact P value at the highest concentration tested
(1 picture or pasted object on this page, not shown here)

HAP40 = test: Macrocycle precipitation (MP), co-purification of HAP40, LC-MS/MS; format: binding, human; settings: HEK293T lysate versus HTT CRISPR knockout line

T2 sequence (P42858 with tags, fused parts or gaps INS38QQ): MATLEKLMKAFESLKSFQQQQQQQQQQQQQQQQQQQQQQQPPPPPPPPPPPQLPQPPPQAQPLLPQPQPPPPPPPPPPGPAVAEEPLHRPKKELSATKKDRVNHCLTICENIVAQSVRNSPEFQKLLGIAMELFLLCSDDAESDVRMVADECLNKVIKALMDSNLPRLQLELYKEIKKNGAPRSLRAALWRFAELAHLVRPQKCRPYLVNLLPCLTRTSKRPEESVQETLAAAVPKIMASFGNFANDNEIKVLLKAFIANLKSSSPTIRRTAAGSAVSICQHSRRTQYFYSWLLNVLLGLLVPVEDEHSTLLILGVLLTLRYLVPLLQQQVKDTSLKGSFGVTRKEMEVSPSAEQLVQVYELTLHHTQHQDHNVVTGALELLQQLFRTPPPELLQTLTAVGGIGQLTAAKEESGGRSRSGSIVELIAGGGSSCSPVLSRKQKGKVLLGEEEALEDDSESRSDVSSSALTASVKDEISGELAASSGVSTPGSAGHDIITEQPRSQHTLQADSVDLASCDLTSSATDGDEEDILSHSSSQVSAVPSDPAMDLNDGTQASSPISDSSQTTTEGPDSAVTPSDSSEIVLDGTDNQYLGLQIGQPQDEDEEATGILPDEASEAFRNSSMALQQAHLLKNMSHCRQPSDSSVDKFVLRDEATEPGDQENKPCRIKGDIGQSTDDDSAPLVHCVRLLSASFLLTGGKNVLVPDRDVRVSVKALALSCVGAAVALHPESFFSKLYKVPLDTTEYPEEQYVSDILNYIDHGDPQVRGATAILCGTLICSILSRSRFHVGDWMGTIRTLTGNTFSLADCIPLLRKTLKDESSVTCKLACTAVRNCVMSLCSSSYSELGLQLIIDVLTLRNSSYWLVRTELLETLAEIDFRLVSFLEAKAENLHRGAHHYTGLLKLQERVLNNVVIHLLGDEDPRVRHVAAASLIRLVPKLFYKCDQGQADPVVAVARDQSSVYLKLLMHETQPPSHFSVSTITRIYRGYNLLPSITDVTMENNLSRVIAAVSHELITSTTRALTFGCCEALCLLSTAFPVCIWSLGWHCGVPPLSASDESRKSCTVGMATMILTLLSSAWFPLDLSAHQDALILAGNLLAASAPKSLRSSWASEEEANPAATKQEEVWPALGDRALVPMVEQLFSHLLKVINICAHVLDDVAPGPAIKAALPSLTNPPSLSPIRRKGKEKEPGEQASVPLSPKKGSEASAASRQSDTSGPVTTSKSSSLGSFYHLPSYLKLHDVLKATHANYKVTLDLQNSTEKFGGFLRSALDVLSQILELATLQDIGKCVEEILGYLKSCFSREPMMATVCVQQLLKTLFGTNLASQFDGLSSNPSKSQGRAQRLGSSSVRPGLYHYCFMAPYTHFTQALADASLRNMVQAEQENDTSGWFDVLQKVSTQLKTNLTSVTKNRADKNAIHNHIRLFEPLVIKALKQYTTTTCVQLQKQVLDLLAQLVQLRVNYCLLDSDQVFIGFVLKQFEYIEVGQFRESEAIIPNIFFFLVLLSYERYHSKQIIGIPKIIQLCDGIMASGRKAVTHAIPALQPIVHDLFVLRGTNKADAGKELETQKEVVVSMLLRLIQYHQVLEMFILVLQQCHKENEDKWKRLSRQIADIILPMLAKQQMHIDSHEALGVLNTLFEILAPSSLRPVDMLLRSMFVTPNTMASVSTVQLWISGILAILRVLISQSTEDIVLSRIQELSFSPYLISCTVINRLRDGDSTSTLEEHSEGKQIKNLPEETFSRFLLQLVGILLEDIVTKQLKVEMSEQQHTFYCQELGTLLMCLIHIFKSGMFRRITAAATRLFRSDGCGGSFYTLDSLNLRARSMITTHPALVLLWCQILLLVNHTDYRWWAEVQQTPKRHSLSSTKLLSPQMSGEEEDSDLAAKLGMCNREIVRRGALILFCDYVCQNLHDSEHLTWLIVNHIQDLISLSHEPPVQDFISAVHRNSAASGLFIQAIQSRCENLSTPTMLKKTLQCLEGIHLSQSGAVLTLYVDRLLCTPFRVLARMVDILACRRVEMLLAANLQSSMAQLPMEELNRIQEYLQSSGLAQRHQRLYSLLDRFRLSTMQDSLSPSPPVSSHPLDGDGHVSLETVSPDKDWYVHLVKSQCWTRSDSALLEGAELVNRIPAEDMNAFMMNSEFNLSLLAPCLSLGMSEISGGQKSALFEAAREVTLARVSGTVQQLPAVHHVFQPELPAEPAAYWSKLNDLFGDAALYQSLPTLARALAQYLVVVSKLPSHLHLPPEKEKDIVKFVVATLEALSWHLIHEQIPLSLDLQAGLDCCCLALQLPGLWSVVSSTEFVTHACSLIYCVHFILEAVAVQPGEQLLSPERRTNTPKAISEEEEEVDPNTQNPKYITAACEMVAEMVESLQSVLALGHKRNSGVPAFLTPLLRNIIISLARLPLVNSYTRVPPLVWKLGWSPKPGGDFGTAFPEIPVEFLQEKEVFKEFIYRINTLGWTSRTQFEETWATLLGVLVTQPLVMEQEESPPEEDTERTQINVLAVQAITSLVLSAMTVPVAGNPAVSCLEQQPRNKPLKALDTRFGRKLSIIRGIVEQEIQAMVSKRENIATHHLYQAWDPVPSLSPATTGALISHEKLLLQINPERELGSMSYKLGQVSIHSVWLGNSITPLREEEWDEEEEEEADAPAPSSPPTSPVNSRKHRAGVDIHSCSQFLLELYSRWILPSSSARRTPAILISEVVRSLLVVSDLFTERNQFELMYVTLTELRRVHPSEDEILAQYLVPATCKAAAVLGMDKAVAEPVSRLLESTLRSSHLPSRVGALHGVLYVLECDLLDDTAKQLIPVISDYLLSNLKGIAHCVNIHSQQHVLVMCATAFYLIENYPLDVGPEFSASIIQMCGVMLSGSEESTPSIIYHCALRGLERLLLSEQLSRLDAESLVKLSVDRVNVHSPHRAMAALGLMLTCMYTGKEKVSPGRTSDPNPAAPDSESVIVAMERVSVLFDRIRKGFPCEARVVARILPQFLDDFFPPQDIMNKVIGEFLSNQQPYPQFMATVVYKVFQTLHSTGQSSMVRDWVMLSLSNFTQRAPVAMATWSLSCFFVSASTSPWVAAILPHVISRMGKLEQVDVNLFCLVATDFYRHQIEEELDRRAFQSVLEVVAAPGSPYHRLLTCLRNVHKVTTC
T2 sequence (P23610 whole entry, stated change not applied): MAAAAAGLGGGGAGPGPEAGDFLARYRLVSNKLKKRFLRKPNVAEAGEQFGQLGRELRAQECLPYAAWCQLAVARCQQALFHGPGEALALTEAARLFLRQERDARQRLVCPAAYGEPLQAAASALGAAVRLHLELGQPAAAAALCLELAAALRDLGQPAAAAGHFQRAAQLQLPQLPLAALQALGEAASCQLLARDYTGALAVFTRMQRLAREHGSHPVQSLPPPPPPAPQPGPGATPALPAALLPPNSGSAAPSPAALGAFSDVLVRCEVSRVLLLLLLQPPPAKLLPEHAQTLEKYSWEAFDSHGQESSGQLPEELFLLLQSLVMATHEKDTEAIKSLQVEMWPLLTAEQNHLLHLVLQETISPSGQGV

What does the source list for `CC(C)C[C@@H]1NC(=O)[C@H](Cc2ccc(O)cc2)NC(=O)[C@H](CCCNC(=N)N)NC(=O)[C@H](C)NC(=O)[C@H]([C@@H](C)O)NC(=O)[C@H](Cc2ccc(O)cc2)NC(=O)CSC[C@@H](C(N)=O)NC(=O)[C@H](CCCCN)NC(=O)[C@H](Cc2ccc(O)cc2)NC(=O)[C@H](Cc2c[nH]cn2)NC(=O)[C@H](CC(C)C)NC(=O)[C@H]([C@@H](C)O)NC(=O)CNC(=O)[C@H](CC(C)C)NC(=O)[C@H]([C@@H](C)O)NC1=O` [HL2] ({CH2CO}-YTARYLTLGTLHYKC-NH2; thioether N-15; C-terminus assumed)?
Thermal shift (ΔTm) of HTTQ54 induced by macrocycle (HTTQ54): No significant thermal effects; Thermal shift (ΔTm) of HTTQ23-HAP40 induced by macrocycle (HTTQ23-HAP40): No significant thermal effects; Enrichment of HAP40 in macrocycle pulldowns (HAP40): consistently enriched
